Reference: ChEMBL document CHEMBL4507273 (2021)

Legend:
[1] = target: Calcium/calmodulin-dependent protein kinase type II subunit alpha (Homo sapiens) (UniProt Q9UQM7); details: Compound concentration 1000.0 nM
[2] = target: Glycogen synthase kinase-3 beta (Homo sapiens) (UniProt P49841); details: Compound concentration 1000.0 nM
[3] = target: Mitogen-activated protein kinase kinase kinase 4 (Homo sapiens) (UniProt Q9Y6R4); details: Compound concentration 1000.0 nM
[4] = target: Serine/threonine-protein kinase NLK (Homo sapiens) (UniProt Q9UBE8); details: Compound concentration 1000.0 nM
[5] = target: Leukocyte tyrosine kinase receptor (Homo sapiens) (UniProt P29376); details: Compound concentration 1000.0 nM
[6] = target: LIM domain kinase 2 (Homo sapiens) (UniProt P53671); details: Compound concentration 1000.0 nM
Chain of LIM domain kinase 2 (Homo sapiens) (P53671 whole entry, looked up, the tested form may be a part): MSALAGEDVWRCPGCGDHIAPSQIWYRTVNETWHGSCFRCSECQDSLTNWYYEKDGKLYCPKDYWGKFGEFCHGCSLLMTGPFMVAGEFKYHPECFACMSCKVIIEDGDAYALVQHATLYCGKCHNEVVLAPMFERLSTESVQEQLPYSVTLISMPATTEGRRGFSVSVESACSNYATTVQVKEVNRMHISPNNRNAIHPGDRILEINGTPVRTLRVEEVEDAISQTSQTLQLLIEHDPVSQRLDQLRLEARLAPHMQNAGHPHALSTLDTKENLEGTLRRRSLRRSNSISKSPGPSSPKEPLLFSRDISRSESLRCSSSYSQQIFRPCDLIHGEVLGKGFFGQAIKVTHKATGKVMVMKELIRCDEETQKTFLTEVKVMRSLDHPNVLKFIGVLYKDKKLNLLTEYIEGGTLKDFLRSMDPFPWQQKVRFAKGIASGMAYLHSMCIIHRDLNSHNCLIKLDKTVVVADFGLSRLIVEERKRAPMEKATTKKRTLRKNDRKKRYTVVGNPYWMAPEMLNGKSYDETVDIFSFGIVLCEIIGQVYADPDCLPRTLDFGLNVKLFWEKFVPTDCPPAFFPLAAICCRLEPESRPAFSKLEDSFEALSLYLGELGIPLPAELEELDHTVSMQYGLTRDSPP

[7] = target: Sigma intracellular receptor 2 (Homo sapiens, UniProt Q5BJF2); assay: GPCRScan assay: inhibition of Sigma 2; design: radioligand conc. used [nm] 5.0, parental cells HEKT
Chain of Sigma intracellular receptor 2 (Q5BJF2 whole entry): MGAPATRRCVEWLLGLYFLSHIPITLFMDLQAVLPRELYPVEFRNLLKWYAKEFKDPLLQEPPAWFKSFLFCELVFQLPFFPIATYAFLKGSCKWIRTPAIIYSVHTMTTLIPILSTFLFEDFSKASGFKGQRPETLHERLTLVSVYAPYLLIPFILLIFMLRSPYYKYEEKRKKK

[8] = target: Myosin light chain kinase, smooth muscle (Homo sapiens) (UniProt Q15746); details: Compound concentration 1000.0 nM
[9] = target: Fibroblast growth factor receptor 3 (Homo sapiens) (UniProt P22607); details: Compound concentration 1000.0 nM
[10] = target: Serine/threonine-protein kinase DCLK2 (Homo sapiens) (UniProt Q8N568); details: Compound concentration 1000.0 nM
[11] = target: Activin receptor type-2A (Homo sapiens) (UniProt P27037); details: Compound concentration 1000.0 nM
[12] = target: Proto-oncogene tyrosine-protein kinase receptor Ret (Homo sapiens) (UniProt P07949); assay: Ret(h) Eurofins Kinase panel; details: Compound concentration 1.0 uM
[13] = target: Receptor-interacting serine/threonine-protein kinase 2 (Homo sapiens) (UniProt O43353); details: Compound concentration 1000.0 nM
[14] = target: Receptor-type tyrosine-protein kinase FLT3 (Homo sapiens) (UniProt P36888); details: Compound concentration 1000.0 nM
[15] = target: Tyrosine-protein kinase Lyn (Homo sapiens) (UniProt P07948); details: Compound concentration 1000.0 nM
[16] = target: Serine/threonine-protein kinase MARK1 (Homo sapiens) (UniProt Q9P0L2); details: Compound concentration 1000.0 nM
[17] = target: Serine/threonine-protein kinase pim-3 (Homo sapiens) (UniProt Q86V86); details: Compound concentration 1000.0 nM
[18] = target: Cyclin-dependent kinase-like 2 (Homo sapiens) (UniProt Q92772); details: Compound concentration 1000.0 nM
[19] = target: Atypical kinase COQ8B, mitochondrial (Homo sapiens) (UniProt Q96D53); details: Compound concentration 1000.0 nM
[20] = target: Interferon-induced, double-stranded RNA-activated protein kinase (Homo sapiens) (UniProt P19525); details: Compound concentration 1000.0 nM
[21] = test system: Epidermal growth factor receptor (Homo sapiens), P00533 [UNDEFINED MUTATION]; details: Compound concentration 1000.0 nM
[22] = target: Sodium-dependent dopamine transporter (Homo sapiens, UniProt Q01959); details: Compound concentration 10.0 uM
[23] = target: Inhibitor of nuclear factor kappa-B kinase subunit epsilon (Homo sapiens) (UniProt Q14164); details: Compound concentration 1000.0 nM
[24] = target: Cyclin-dependent kinase 9 (Homo sapiens) (UniProt P50750); details: Compound concentration 1000.0 nM
Chain of Cyclin-dependent kinase 9 (Homo sapiens) (P50750 whole entry): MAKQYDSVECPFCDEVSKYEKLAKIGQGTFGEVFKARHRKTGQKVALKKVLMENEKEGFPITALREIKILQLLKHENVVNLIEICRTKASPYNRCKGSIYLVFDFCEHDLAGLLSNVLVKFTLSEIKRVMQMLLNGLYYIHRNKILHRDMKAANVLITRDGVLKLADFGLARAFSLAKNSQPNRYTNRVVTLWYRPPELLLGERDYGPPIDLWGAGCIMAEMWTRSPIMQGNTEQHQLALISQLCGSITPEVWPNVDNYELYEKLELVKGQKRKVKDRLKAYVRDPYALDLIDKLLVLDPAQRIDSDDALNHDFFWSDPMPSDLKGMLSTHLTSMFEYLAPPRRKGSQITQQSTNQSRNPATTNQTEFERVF

[25] = target: SNF-related serine/threonine-protein kinase (Homo sapiens) (UniProt Q9NRH2); details: Compound concentration 1000.0 nM
[26] = target: Serine/threonine-protein kinase Sgk1 (Homo sapiens) (UniProt O00141); details: Compound concentration 1000.0 nM
[27] = target: TRAF2 and NCK-interacting protein kinase (Homo sapiens) (UniProt Q9UKE5); details: Compound concentration 1000.0 nM
[28] = test system: Epidermal growth factor receptor (Homo sapiens), P00533 [G719C]; details: Compound concentration 1000.0 nM
[29] = target: Calcium/calmodulin-dependent protein kinase type 1 (Homo sapiens) (UniProt Q14012); details: Compound concentration 1000.0 nM
Chain of Calcium/calmodulin-dependent protein kinase type 1 (Homo sapiens) (Q14012 whole entry, looked up): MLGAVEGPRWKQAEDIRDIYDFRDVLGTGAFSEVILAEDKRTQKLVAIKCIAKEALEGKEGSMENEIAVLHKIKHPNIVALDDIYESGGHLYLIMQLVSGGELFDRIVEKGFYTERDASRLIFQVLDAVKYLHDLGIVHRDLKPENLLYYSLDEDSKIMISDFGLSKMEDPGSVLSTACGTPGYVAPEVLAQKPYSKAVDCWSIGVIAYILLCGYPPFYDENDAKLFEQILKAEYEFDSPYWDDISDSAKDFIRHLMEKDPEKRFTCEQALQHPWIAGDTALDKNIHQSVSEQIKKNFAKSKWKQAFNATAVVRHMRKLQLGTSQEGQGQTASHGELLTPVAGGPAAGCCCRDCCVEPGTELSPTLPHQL

[30] = target: Calcium/calmodulin-dependent protein kinase kinase 1 (Homo sapiens) (UniProt Q8N5S9); details: Compound concentration 1000.0 nM
[31] = target: Serine/threonine-protein kinase 24 (Homo sapiens) (UniProt Q9Y6E0); details: Compound concentration 1000.0 nM
[32] = target: Dual serine/threonine and tyrosine protein kinase (Homo sapiens) (UniProt Q6XUX3); details: Compound concentration 1000.0 nM
[33] = target: Adenosine Transporter (Cavia porcellus) (UniProt H0V4R7+H0UUG1+H0V3Z5); assay: Inhibition of Transporter, Adenosine at compound concentration of 10.0 uM in the Eurofins-Panlabs radioligand binding assay (Eurofins_assay_202000); type: protein assay; design: ligand concentration 0.5 nM, non-specific ligand with concentration 5 uM Nitrobenzylthioinosine, incubation time 30 min, incubation temperature 25 C; details: Compound concentration 10.0 uM
[34] = target: Myosin-IIIb (Homo sapiens) (UniProt Q8WXR4); details: Compound concentration 1000.0 nM
Chain of Myosin-IIIb (Homo sapiens) (Q8WXR4 whole entry): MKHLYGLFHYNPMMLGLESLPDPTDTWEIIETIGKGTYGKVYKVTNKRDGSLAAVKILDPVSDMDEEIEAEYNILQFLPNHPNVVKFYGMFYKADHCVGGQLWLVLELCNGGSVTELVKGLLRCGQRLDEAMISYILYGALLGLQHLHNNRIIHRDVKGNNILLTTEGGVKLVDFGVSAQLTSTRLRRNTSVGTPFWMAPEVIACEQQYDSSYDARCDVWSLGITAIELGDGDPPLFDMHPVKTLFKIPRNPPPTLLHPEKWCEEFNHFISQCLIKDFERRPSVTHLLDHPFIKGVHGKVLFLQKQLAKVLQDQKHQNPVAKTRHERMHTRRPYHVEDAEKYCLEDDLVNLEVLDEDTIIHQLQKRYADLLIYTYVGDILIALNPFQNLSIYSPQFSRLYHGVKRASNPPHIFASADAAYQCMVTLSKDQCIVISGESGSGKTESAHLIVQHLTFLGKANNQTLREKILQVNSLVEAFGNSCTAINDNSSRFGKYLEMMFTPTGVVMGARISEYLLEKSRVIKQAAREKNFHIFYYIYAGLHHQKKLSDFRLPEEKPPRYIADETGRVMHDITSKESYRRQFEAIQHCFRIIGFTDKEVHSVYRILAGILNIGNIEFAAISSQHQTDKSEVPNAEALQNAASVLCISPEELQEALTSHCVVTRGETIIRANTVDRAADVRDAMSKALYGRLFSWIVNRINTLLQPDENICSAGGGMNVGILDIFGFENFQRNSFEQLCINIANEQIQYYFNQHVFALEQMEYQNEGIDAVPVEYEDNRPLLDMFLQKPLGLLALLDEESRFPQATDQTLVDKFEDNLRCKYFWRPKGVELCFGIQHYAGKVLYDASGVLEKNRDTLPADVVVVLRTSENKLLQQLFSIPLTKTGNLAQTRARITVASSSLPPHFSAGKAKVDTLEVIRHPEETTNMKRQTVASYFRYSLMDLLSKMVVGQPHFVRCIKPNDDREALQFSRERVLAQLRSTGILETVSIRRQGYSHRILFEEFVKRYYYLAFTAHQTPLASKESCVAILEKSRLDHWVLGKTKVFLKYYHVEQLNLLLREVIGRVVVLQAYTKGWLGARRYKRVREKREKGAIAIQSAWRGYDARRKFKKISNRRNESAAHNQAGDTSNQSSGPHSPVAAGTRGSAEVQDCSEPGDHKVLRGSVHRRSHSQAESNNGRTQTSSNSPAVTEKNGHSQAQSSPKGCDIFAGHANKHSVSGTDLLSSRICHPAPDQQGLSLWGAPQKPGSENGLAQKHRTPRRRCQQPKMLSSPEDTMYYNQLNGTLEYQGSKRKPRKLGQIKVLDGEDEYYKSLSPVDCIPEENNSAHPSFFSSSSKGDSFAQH

[35] = test system: Mast/stem cell growth factor receptor Kit (Homo sapiens), P10721 [V559D,T670I]; details: Compound concentration 1000.0 nM
[36] = target: Mitogen-activated protein kinase 12 (Homo sapiens) (UniProt P53778); details: Compound concentration 1000.0 nM
[37] = target: Ribosomal protein S6 kinase alpha-4 (Homo sapiens) (UniProt O75676); details: Compound concentration 1000.0 nM
[38] = target: Serine/threonine-protein kinase 32A (Homo sapiens) (UniProt Q8WU08); details: Compound concentration 1000.0 nM
[39] = target: 5-hydroxytryptamine receptor 2A (Homo sapiens, UniProt P28223); assay: GPCRScan assay: inhibition of 5-HT2A; design: radioligand conc. used [nm] 1.2 – 2.4, parental cells HEKT
Chain of 5-hydroxytryptamine receptor 2A (P28223 whole entry): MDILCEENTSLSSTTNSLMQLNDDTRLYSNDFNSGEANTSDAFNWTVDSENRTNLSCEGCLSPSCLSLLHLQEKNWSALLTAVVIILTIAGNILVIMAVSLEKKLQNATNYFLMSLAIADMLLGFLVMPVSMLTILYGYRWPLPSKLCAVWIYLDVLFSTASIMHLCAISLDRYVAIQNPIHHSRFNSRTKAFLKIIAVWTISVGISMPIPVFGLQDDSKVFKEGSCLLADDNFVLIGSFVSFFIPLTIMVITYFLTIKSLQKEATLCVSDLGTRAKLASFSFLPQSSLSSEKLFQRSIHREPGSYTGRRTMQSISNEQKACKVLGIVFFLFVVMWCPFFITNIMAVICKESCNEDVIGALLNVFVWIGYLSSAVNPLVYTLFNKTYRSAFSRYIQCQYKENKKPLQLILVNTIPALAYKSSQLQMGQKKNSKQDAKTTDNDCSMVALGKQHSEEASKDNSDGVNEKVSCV

[40] = target: MAP/microtubule affinity-regulating kinase 3 (Homo sapiens) (UniProt P27448); details: Compound concentration 1000.0 nM
[41] = target: Myotonin-protein kinase (Homo sapiens) (UniProt Q09013); details: Compound concentration 1000.0 nM
[42] = target: Interleukin-1 receptor-associated kinase 3 (Homo sapiens) (UniProt Q9Y616); details: Compound concentration 1000.0 nM
Chain of Interleukin-1 receptor-associated kinase 3 (Homo sapiens) (Q9Y616 whole entry): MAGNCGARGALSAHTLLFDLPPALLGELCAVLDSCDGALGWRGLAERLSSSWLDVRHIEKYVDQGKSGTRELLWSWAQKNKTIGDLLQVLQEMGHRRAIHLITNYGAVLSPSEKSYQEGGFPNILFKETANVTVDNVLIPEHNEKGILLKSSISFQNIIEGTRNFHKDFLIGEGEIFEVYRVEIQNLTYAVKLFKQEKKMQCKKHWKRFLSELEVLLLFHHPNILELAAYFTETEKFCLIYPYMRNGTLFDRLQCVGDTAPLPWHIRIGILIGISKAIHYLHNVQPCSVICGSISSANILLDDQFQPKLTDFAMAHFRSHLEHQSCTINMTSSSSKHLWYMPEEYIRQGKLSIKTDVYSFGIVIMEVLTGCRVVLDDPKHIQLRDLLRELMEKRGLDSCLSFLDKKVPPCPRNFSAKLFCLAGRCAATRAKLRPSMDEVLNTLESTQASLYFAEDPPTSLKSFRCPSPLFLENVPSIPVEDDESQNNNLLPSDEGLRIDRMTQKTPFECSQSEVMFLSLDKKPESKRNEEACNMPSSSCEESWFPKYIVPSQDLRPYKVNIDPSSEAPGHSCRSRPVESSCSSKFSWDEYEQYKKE

[43] = target: Fibroblast growth factor receptor 4 (Homo sapiens) (UniProt P22455); details: Compound concentration 1000.0 nM
[44] = test system: Phosphatidylinositol 4,5-bisphosphate 3-kinase catalytic subunit alpha isoform (Homo sapiens), P42336 [E545A]; details: Compound concentration 1000.0 nM
Chain of Phosphatidylinositol 4,5-bisphosphate 3-kinase catalytic subunit alpha isoform (Homo sapiens), P42336 [E545A] (P42336 whole entry E545A, canonical isoform): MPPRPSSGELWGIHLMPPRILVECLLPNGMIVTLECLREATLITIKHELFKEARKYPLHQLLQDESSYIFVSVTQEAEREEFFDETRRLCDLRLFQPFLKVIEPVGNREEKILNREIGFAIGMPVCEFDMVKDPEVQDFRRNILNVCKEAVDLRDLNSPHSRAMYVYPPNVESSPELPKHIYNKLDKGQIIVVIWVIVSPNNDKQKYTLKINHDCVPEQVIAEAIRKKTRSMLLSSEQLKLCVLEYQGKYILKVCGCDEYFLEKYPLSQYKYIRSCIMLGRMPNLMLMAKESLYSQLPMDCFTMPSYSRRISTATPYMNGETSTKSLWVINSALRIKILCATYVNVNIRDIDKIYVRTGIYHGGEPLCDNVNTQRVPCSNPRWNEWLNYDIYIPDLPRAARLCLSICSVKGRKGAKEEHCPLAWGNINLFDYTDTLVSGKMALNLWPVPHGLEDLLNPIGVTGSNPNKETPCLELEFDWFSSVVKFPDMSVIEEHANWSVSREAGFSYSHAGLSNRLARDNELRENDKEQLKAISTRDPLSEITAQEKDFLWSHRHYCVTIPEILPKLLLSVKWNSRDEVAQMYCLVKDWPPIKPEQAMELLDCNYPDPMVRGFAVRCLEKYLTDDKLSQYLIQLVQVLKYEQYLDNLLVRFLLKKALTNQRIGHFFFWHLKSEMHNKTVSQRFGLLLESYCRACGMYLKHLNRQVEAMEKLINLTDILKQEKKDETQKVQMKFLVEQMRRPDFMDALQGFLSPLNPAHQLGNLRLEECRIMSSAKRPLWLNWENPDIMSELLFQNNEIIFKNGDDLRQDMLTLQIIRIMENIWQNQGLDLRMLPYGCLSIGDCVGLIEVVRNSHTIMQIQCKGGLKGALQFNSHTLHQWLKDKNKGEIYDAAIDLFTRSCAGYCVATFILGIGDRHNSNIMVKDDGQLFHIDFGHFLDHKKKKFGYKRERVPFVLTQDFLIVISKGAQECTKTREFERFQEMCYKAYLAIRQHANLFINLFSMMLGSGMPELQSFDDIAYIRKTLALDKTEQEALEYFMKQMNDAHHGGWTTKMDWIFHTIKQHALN

CNCc1ccccc1-c1csc([C@@H](C)Nc2nc(C)nc3cc(OC)c(OC)cc23)c1 [BAY-293]
residual activity [1]: 99% | residual activity [2]: 90% | residual activity [3]: 73% | residual activity [4]: 84% | residual activity [5]: 97% | residual activity [6]: 96% | Ki ([7]; read-out: Ki): 180 nM | residual activity [8]: 84% | residual activity [9]: 90% | residual activity [10]: 99% | residual activity [11]: 94% | % residual kinase activity [12]: 81% | residual activity [13]: 100% | residual activity [14]: 88% | residual activity [15]: 100% | residual activity [16]: 100% | residual activity [17]: 83% | residual activity [18]: 99% | residual activity [19]: 65% | residual activity [20]: 90% | residual activity [21]: 50% | inhibition [22]: 90% | residual activity [23]: 71% | residual activity [24]: 100% | residual activity [25]: 78% | residual activity [26]: 81% | residual activity [27]: 85% | residual activity [28]: 63% | residual activity [29]: 100% | residual activity [30]: 100% | residual activity [31]: 100% | residual activity [32]: 83% | inhibition [33]: 62% | residual activity [34]: 47% | residual activity [35]: 80% | residual activity [36]: 100% | residual activity [37]: 100% | residual activity [38]: 76% | Ki ([39]; read-out: Ki): 133 nM | Ki ([39]; read-out: pKi (converted)): 110 nM | residual activity [40]: 89% | residual activity [41]: 86% | residual activity [42]: 75% | residual activity [43]: 100% | residual activity [44]: 91%

CNCc1ccccc1-c1csc([C@H](C)Nc2nc(C)nc3cc(OC)c(OC)cc23)c1 [BAY-294]
residual activity [1]: 100% | residual activity [2]: 100% | residual activity [3]: 100% | residual activity [4]: 100% | residual activity [5]: 98% | residual activity [6]: 100% | Ki ([7]; read-out: Ki): 638 nM | Ki ([7]; read-out: pKi (converted)): 610 nM | residual activity [8]: 94% | residual activity [9]: 98% | residual activity [10]: 100% | residual activity [11]: 76% | residual activity [13]: 100% | residual activity [14]: 93% | residual activity [15]: 100% | residual activity [16]: 100% | residual activity [17]: 100% | residual activity [18]: 100% | residual activity [19]: 93% | residual activity [20]: 100% | residual activity [21]: 64% | residual activity [23]: 85% | residual activity [24]: 100% | residual activity [25]: 93% | residual activity [26]: 91% | residual activity [27]: 99% | residual activity [28]: 85% | residual activity [29]: 100% | residual activity [30]: 99% | residual activity [31]: 100% | residual activity [32]: 78% | residual activity [34]: 87% | residual activity [35]: 100% | residual activity [36]: 100% | residual activity [37]: 100% | residual activity [38]: 91% | Ki ([39]; read-out: Ki): 69.4 nM | residual activity [40]: 100% | residual activity [41]: 85% | residual activity [42]: 83% | residual activity [43]: 100% | residual activity [44]: 97%
